From US20080004325A1, “PTP1B inhibitors” (Wyeth, priority 2006, published 2008)

Molecular target: T1, catalytic domain of human PTP1b (residues 1-299) (Homo sapiens, UniProt P18031)
T1 construct: catalytic domain of human PTP1b (residues 1-299); made in house; host or cells: E. coli
T1 sequence (P18031 1-299): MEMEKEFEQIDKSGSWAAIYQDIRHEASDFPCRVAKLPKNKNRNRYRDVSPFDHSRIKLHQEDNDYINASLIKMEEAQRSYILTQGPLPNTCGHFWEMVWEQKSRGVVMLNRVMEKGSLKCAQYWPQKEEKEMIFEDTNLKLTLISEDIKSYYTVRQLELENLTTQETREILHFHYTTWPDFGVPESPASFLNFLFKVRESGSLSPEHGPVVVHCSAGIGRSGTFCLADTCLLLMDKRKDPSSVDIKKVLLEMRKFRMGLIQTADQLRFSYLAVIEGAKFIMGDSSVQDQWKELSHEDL
Experiment: PTP1b pNPP hydrolysis inhibition assay
Assay type: biochemical
Conditions: pNPP substrate, 25° C., pH 7.0, three fixed inhibitor concentrations; read-out: Ki Micromolar
Description: The p-nitrophenyl phosphate (pNPP) substrate was purchased from Sigma. PTPase activity was measured at room temperature (25° C.) in a 200 ul reaction mixture with various concentrations of substrate. Reactions began with enzyme addition and were quenched after 2-3 minutes with 1N NaOH. Background hydrolysis of pNPP was measured without addition of enzyme. […] All experiments were performed in 50 mM 3,3-dimethylglutarate buffer (pH 7.0), with 10 mM DTT, 1 mM EDTA, and with the ionic strength adjusted to 0.15 M with NaCl. All solutions were prepared in distilled, deionized water. For initial evaluation of each compound, percent inhibition was determined for two concentrations of compound (for example at 200 uM and 20 uM) at a fixed pNPP concentration.
Percent inhibition was determined following background subtraction of the non-enzymatic hydrolysis rate compared to no inhibitor (DMSO only) controls. Inhibition constants and inhibition patterns were evaluated using the direct curve-fitting program GraFit (Erithacus Software Limited).

Compound Cc1c(N2CC(=O)NS2(=O)=O)csc1-c1cccc(NC2CC(C)(C)CC(C)(C)C2)c1 has a Ki of 15 µM.

CC1C(=O)NS(=O)(=O)N1c1csc(-c2ccccc2)c1 (stereo not shown) [4-methyl-5-(5-phenyl-3-thienyl)-1,2,5-thiadiazolidin-3-one 1,1-dioxide] showed a Ki greater than 1000 µM.

O=C1CN(c2csc(-c3cccc(NC4CCCCC4)c3)c2)S(=O)(=O)N1 [5-5-[3-(cyclohexylamino)phenyl]-3-thienyl}-1,2,5-thiadiazolidin-3-one 1,1-dioxide] showed a Ki of 12 µM.

For O=C1CN(c2csc(-c3ccccc3)c2Br)S(=O)(=O)N1 [5-(4-bromo-5-phenyl-3-thienyl)-1,2,5-thiadiazolidin-3-one 1,1-dioxide], the Ki was 18 µM.

Cc1c(N2CC(=O)NS2(=O)=O)csc1-c1ccccc1 [5-(4-methyl-5-phenyl-3-thienyl)-1,2,5-thiadiazolidin-3-one 1,1-dioxide] was tested, and the Ki was 41 µM.

Compound O=C1CN(c2csc(-c3ccccc3)c2)S(=O)(=O)N1 [5-(5-phenyl-3-thienyl)-1,2,5-thiadiazolidin-3-one 1,1-dioxide] has a Ki of 150 µM.

Work on Cc1c(N2CC(=O)NS2(=O)=O)csc1-c1cccc([N+](=O)[O-])c1 [5-[4-methyl-5-(3-nitrophenyl)-3-thienyll-1,2,5-thiadiazolidin-3-one 1,1-dioxide] yielded a Ki of 34 µM.

For Cc1c(N2CC(=O)NS2(=O)=O)csc1-c1cccc(NC2CCN(S(=O)(=O)Cc3ccccc3)CC2)c1 [5-[5-(3-{[1-(benzylsulfonyl)piperidine-4-yl]amino}phenyl)-4-methyl-3-thienyl]-1,2,5-thiadiazolidin-3-one 1,1-dioxide], the Ki was 4 µM.

With O=C1CN(c2csc(-c3cccc(NC4CCCCC4)c3)c2Cl)S(=O)(=O)N1 [5-{4-chloro-5-[3-(cyclohexylamino)phenyl]-3-thienyl}-1,2,5-thiadiazolidin-3-one 1,1-dioxide] the Ki was 14 µM.

NS(=O)(=O)N(c1cccc(-c2scc(N3CC(=O)NS3(=O)=O)c2Cl)c1)C1CCCCC1 [N-{3-[3-chloro-4-(1,1-dioxido-4-oxo-1,2,5-thiadiazolidin-2-yl)-2-thienyl]phenyl}-N-cyclohexylsulfamide] gave a Ki of 1.7 µM.
